Reference: the kinase profiling compilation of Christmann-Franck et al. (2016)
Blank lines part the entries; values can stand above or below the molecule they belong to.

How the values were obtained:
Experiment in all cases: radiometric filter-binding kinase assay
PIM3 (human) = PIM3 (human) (UniProt Q86V86)
STK3 (human) = STK3 (human) (UniProt Q13188)
PIM1 (human) = PIM1 (human) (UniProt P11309)
MARK1 (human) = MARK1 (human) (UniProt Q9P0L2)
MAPK9 (human) = MAPK9 (human) (UniProt P45984)
PHKG1 (human) = PHKG1 (human) (UniProt Q16816)
MAPK12 (human) = MAPK12 (human) (UniProt P53778)
HIPK3 (human) = HIPK3 (human) (UniProt Q9H422)
GSK3B (human) = GSK3B (human) (UniProt P49841)
Sequence of GSK3B (human) (P49841 whole entry, looked up): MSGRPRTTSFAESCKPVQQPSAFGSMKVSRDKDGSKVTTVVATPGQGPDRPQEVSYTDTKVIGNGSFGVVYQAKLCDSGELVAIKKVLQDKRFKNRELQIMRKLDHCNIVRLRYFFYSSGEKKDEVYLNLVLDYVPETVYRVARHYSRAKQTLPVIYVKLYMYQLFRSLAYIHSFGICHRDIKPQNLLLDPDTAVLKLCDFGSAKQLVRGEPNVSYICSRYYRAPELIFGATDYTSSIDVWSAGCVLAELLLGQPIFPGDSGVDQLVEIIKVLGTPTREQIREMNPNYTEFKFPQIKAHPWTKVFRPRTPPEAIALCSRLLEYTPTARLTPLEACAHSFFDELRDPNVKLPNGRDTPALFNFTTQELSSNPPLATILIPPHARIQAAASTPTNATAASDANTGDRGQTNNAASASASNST

IKBKE (human) = IKBKE (human) (UniProt Q14164)
EEF2K (human) = EEF2K (human) (UniProt O00418)
PRKACA (human) = PRKACA (human) (UniProt P17612)
[1] = tested on: SGK1 (human), O00141 [S422D]
DAPK1 (human) = DAPK1 (human) (UniProt P53355)
Sequence of DAPK1 (human) (P53355 whole entry, looked up): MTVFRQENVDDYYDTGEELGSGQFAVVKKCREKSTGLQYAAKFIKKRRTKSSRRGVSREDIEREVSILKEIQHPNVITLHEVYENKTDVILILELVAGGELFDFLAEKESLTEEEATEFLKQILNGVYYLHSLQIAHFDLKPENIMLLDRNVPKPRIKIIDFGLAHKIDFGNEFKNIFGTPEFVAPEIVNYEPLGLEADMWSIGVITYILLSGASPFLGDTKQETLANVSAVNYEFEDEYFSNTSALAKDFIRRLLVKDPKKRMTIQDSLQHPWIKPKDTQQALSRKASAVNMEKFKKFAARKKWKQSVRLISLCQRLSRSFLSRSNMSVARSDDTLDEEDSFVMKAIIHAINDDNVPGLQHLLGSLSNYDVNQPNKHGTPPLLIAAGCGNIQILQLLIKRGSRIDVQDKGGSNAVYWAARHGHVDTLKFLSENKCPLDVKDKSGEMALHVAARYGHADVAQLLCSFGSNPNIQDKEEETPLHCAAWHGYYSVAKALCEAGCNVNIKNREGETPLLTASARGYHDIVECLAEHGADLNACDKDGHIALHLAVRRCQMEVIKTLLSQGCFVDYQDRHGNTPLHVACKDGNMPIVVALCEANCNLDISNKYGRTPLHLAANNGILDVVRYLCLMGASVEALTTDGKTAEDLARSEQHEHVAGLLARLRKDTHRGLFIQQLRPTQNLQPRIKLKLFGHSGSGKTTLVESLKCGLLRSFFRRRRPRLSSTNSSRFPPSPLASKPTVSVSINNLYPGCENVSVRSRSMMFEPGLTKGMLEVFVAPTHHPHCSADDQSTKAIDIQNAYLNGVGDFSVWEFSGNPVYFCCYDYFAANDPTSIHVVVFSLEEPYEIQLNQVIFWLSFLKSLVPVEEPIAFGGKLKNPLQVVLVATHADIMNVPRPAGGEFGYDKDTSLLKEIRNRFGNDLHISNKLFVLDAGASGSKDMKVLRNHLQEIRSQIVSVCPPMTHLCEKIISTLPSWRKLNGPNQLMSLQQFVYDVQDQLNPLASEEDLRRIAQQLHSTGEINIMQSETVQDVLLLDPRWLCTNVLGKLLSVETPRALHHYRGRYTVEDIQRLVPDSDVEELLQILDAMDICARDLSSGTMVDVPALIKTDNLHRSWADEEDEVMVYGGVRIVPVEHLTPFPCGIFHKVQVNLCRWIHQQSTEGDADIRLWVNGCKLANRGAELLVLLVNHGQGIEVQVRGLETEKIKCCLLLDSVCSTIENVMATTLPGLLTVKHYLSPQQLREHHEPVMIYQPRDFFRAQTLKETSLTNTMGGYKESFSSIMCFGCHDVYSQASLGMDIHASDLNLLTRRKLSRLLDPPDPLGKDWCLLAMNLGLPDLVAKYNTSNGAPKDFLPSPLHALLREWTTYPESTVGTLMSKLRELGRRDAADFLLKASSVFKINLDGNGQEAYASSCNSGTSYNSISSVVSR

BRSK2 (human) = BRSK2 (human) (UniProt Q8IWQ3)
MAPK3 (human) = MAPK3 (human) (UniProt P27361)
MELK (human) = MELK (human) (UniProt Q14680)
BRSK1 (human) = BRSK1 (human) (UniProt Q8TDC3)
PAK7 (human) = PAK7 (human) (UniProt Q9P286)
MAP3K5 (human) = MAP3K5 (human) (UniProt Q99683)
MAP2K6 (human) = MAP2K6 (human) (UniProt P52564)
FGFR1 (human) = FGFR1 (human) (UniProt P11362)
PIM2 (human) = PIM2 (human) (UniProt Q9P1W9)
PRKAA1 or PRKAA2 (rat) = settings: accession and sequence are those of the human protein
MKNK1 (human) = MKNK1 (human) (UniProt Q9BUB5)
PRKCZ (human) = PRKCZ (human) (UniProt Q05513)
DYRK1A (human) = DYRK1A (human) (UniProt Q13627)
MAPKAPK5 (human) = MAPKAPK5 (human) (UniProt Q8IW41)
MAP2K2 (human) = MAP2K2 (human) (UniProt P36507)
Sequence of MAP2K2 (human) (P36507 whole entry, looked up): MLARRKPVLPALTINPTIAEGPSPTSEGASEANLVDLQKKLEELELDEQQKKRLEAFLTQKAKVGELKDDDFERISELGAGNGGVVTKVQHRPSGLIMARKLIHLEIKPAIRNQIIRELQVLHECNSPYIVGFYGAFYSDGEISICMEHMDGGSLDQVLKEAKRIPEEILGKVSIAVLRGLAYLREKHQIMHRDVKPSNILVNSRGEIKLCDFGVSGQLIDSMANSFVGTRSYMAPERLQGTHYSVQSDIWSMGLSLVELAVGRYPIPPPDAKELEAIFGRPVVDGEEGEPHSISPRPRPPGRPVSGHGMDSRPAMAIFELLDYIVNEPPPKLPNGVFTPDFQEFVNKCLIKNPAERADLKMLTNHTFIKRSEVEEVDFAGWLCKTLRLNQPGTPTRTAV

MAPK13 (human) = MAPK13 (human) (UniProt O15264)
SYK (human) = SYK (human) (UniProt P43405)
MAPKAPK2 (human) = MAPKAPK2 (human) (UniProt P49137)
CAMKK2 (human) = CAMKK2 (human) (UniProt Q96RR4)
Sequence of CAMKK2 (human) (Q96RR4 whole entry, looked up): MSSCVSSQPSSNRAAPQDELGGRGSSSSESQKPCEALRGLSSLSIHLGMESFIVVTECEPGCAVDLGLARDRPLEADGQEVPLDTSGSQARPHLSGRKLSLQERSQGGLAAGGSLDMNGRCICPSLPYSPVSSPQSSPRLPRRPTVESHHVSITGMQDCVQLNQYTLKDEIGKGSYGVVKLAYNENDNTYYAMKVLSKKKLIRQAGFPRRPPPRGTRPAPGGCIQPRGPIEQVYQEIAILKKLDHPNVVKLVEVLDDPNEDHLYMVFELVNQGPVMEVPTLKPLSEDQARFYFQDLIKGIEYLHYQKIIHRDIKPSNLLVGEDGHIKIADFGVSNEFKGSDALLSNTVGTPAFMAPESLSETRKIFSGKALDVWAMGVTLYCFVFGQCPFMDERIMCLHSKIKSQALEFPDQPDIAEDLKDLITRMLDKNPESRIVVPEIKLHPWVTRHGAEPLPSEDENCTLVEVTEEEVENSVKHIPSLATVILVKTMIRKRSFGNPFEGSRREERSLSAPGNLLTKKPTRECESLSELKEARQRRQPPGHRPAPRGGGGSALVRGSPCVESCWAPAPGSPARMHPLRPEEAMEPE

EPHB4 (human) = EPHB4 (human) (UniProt P54760)
IGF1R (human) = IGF1R (human) (UniProt P08069)
ERBB4 (human) = ERBB4 (human) (UniProt Q15303)
Sequence of ERBB4 (human) (Q15303 whole entry, looked up): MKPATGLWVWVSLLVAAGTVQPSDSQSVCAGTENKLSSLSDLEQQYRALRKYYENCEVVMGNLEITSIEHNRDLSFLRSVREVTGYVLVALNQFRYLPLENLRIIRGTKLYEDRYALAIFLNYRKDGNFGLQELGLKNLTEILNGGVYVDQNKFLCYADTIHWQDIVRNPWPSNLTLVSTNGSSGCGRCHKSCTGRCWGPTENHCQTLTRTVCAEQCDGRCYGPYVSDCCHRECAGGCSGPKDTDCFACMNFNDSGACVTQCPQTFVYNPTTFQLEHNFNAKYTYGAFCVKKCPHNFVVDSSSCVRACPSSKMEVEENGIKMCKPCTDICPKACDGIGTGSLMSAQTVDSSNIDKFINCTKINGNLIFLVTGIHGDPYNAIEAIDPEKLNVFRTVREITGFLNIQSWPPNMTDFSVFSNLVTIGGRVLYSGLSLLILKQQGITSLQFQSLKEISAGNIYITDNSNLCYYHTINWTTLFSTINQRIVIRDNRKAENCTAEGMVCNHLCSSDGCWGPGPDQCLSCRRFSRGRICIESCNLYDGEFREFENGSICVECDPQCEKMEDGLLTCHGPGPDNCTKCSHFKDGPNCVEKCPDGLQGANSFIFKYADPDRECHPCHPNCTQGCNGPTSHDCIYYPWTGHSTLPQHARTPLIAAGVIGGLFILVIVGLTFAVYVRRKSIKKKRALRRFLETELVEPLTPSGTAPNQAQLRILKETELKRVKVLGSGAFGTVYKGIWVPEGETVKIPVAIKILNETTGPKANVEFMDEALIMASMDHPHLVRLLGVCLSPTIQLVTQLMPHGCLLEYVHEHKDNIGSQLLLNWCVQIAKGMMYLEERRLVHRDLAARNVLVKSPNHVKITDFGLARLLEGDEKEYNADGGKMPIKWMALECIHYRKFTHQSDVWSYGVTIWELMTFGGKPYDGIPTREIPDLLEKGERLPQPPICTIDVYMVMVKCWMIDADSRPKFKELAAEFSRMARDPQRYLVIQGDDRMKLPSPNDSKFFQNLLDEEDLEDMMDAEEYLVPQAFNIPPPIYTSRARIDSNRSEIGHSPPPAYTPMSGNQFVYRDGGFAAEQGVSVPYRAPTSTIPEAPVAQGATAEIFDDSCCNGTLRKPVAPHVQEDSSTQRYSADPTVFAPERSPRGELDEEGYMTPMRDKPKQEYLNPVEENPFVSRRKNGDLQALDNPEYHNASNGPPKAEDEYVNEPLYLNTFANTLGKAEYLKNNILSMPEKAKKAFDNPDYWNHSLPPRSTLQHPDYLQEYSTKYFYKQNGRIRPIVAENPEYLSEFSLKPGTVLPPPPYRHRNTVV

Sequence of STK3 (human) (Q13188 whole entry, looked up): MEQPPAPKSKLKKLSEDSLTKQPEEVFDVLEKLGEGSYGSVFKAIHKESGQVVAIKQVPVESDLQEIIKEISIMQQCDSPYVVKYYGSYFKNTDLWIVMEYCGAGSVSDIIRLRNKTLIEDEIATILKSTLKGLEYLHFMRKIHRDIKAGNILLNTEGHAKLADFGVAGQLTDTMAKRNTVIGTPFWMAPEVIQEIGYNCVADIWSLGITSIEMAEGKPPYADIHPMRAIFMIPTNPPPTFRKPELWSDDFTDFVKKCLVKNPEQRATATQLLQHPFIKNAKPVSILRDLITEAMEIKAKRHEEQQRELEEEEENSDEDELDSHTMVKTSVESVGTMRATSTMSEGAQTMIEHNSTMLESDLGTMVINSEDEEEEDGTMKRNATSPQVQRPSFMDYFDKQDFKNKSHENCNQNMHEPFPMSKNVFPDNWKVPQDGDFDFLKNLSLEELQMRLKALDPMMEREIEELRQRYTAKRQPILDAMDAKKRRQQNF
Sequence of PIM1 (human) (P11309 whole entry, looked up): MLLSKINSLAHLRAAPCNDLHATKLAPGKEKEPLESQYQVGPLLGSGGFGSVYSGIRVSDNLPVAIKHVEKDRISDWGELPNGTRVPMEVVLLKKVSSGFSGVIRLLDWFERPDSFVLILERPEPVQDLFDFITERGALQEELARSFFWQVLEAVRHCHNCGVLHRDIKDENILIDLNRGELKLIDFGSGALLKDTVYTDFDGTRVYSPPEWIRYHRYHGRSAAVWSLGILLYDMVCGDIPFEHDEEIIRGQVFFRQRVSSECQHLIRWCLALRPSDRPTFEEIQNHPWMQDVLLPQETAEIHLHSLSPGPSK

residual activity (PIM3 (human); compound 1.0 µM): 101% | residual activity (PIM3 (human); compound 10.0 µM): 78% | residual activity (STK3 (human); compound 1.0 µM): 111% | residual activity (STK3 (human); compound 10.0 µM): 92% | residual activity (PIM1 (human); compound 1.0 µM): 101% | residual activity (PIM1 (human); compound 10.0 µM): 94% | residual activity (MARK1 (human); compound 1.0 µM): 88% | residual activity (MARK1 (human); compound 10.0 µM): 85% | residual activity (MAPK9 (human); compound 1.0 µM): 108% | residual activity (MAPK9 (human); compound 10.0 µM): 84% | residual activity (PHKG1 (human); compound 1.0 µM): 45% | residual activity (PHKG1 (human); compound 10.0 µM): 8% | residual activity (MAPK12 (human); compound 1.0 µM): 98% | residual activity (MAPK12 (human); compound 10.0 µM): 96% | residual activity (HIPK3 (human); compound 1.0 µM): 101% | residual activity (GSK3B (human); compound 1.0 µM): 73% | residual activity (GSK3B (human); compound 10.0 µM): 43% | residual activity (IKBKE (human); compound 1.0 µM): 94% | residual activity (IKBKE (human); compound 10.0 µM): 55% | residual activity (EEF2K (human); compound 1.0 µM): 103% | residual activity (EEF2K (human); compound 10.0 µM): 107% | residual activity (PRKACA (human); compound 1.0 µM): 102% | residual activity ([1]; compound 1.0 µM): 88% | residual activity ([1]; compound 10.0 µM): 70% | residual activity (DAPK1 (human); compound 1.0 µM): 53% | residual activity (DAPK1 (human); compound 10.0 µM): 11% | residual activity (BRSK2 (human); compound 1.0 µM): 88% | residual activity (BRSK2 (human); compound 10.0 µM): 51% | residual activity (MAPK3 (human); compound 1.0 µM): 79% | residual activity (MAPK3 (human); compound 10.0 µM): 49% | residual activity (MELK (human); compound 1.0 µM): 91% | residual activity (MELK (human); compound 10.0 µM): 39% | residual activity (BRSK1 (human); compound 1.0 µM): 85% | residual activity (BRSK1 (human); compound 10.0 µM): 69% | residual activity (PAK7 (human); compound 1.0 µM): 94% | residual activity (PAK7 (human); compound 10.0 µM): 79% | residual activity (MAP3K5 (human); compound 1.0 µM): 66% | residual activity (MAP3K5 (human); compound 10.0 µM): 13% | residual activity (MAP2K6 (human); compound 1.0 µM): 71% | residual activity (MAP2K6 (human); compound 10.0 µM): 31% | residual activity (FGFR1 (human); compound 1.0 µM): 97% | residual activity (FGFR1 (human); compound 10.0 µM): 104% | residual activity (PIM2 (human); compound 1.0 µM): 100% | residual activity (PIM2 (human); compound 10.0 µM): 107% | residual activity (PRKAA1 or PRKAA2 (rat); compound 10.0 µM): 70% | residual activity (MKNK1 (human); compound 1.0 µM): 74% | residual activity (MKNK1 (human); compound 10.0 µM): 26% | residual activity (PRKCZ (human); compound 1.0 µM): 101% | residual activity (PRKCZ (human); compound 10.0 µM): 86% | residual activity (DYRK1A (human); compound 1.0 µM): 78% | residual activity (DYRK1A (human); compound 10.0 µM): 38% | residual activity (MAPKAPK5 (human); compound 1.0 µM): 77% | residual activity (MAPKAPK5 (human); compound 10.0 µM): 49% | residual activity (MAP2K2 (human); compound 1.0 µM): 118% | residual activity (MAP2K2 (human); compound 10.0 µM): 98% | residual activity (MAPK13 (human); compound 1.0 µM): 97% | residual activity (SYK (human); compound 10.0 µM): 44% | residual activity (MAPKAPK2 (human); compound 1.0 µM): 102% | residual activity (MAPKAPK2 (human); compound 10.0 µM): 97% | residual activity (CAMKK2 (human); compound 1.0 µM): 40% | residual activity (CAMKK2 (human); compound 10.0 µM): 10% | residual activity (EPHB4 (human); compound 1.0 µM): 94% | residual activity (EPHB4 (human); compound 10.0 µM): 94% | residual activity (IGF1R (human); compound 1.0 µM): 35% | residual activity (IGF1R (human); compound 10.0 µM): 8% | residual activity (ERBB4 (human); compound 1.0 µM): 74% | residual activity (ERBB4 (human); compound 10.0 µM): 65%
Compound: COc1cc(C(=O)N2CCOCC2)c(F)cc1Nc1ncc(C(F)(F)F)c(NC2CC2)n1

residual activity (PIM3 (human); compound 1.0 µM): 34% | residual activity (PIM3 (human); compound 10.0 µM): 0% | residual activity (STK3 (human); compound 1.0 µM): 58% | residual activity (STK3 (human); compound 10.0 µM): 9% | residual activity (PIM1 (human); compound 1.0 µM): 37% | residual activity (PIM1 (human); compound 10.0 µM): 7% | residual activity (MARK1 (human); compound 1.0 µM): 40% | residual activity (MARK1 (human); compound 10.0 µM): 11% | residual activity (MAPK9 (human); compound 1.0 µM): 106% | residual activity (MAPK9 (human); compound 10.0 µM): 100% | residual activity (PHKG1 (human); compound 1.0 µM): 98% | residual activity (PHKG1 (human); compound 10.0 µM): 2% | residual activity (MAPK12 (human); compound 1.0 µM): 107% | residual activity (MAPK12 (human); compound 10.0 µM): 88% | residual activity (HIPK3 (human); compound 1.0 µM): 88% | residual activity (HIPK3 (human); compound 10.0 µM): 55% | residual activity (GSK3B (human); compound 1.0 µM): 94% | residual activity (GSK3B (human); compound 10.0 µM): 19% | residual activity (IKBKE (human); compound 1.0 µM): 69% | residual activity (IKBKE (human); compound 10.0 µM): 21% | residual activity (EEF2K (human); compound 1.0 µM): 110% | residual activity (EEF2K (human); compound 10.0 µM): 109% | residual activity (PRKACA (human); compound 1.0 µM): 109% | residual activity (PRKACA (human); compound 10.0 µM): 79% | residual activity ([1]; compound 1.0 µM): 87% | residual activity ([1]; compound 10.0 µM): 24% | residual activity (DAPK1 (human); compound 1.0 µM): 95% | residual activity (BRSK2 (human); compound 1.0 µM): 71% | residual activity (BRSK2 (human); compound 10.0 µM): 13% | residual activity (MAPK3 (human); compound 1.0 µM): 101% | residual activity (MAPK3 (human); compound 10.0 µM): 54% | residual activity (MELK (human); compound 1.0 µM): 53% | residual activity (MELK (human); compound 10.0 µM): 9% | residual activity (BRSK1 (human); compound 1.0 µM): 82% | residual activity (BRSK1 (human); compound 10.0 µM): 7% | residual activity (PAK7 (human); compound 1.0 µM): 67% | residual activity (PAK7 (human); compound 10.0 µM): 55% | residual activity (MAP3K5 (human); compound 1.0 µM): 118% | residual activity (MAP2K6 (human); compound 1.0 µM): 102% | residual activity (FGFR1 (human); compound 1.0 µM): 27% | residual activity (FGFR1 (human); compound 10.0 µM): 14% | residual activity (PIM2 (human); compound 1.0 µM): 74% | residual activity (PIM2 (human); compound 10.0 µM): 11% | residual activity (PRKAA1 or PRKAA2 (rat); compound 1.0 µM): 73% | residual activity (PRKAA1 or PRKAA2 (rat); compound 10.0 µM): 9% | residual activity (MKNK1 (human); compound 1.0 µM): 61% | residual activity (MKNK1 (human); compound 10.0 µM): 12% | residual activity (PRKCZ (human); compound 1.0 µM): 62% | residual activity (PRKCZ (human); compound 10.0 µM): 20% | residual activity (DYRK1A (human); compound 1.0 µM): 71% | residual activity (DYRK1A (human); compound 10.0 µM): 3% | residual activity (MAPKAPK5 (human); compound 1.0 µM): 87% | residual activity (MAPKAPK5 (human); compound 10.0 µM): 1% | residual activity (MAP2K2 (human); compound 1.0 µM): 94% | residual activity (MAPK13 (human); compound 1.0 µM): 96% | residual activity (MAPK13 (human); compound 10.0 µM): 97% | residual activity (SYK (human); compound 1.0 µM): 89% | residual activity (SYK (human); compound 10.0 µM): 93% | residual activity (MAPKAPK2 (human); compound 1.0 µM): 94% | residual activity (MAPKAPK2 (human); compound 10.0 µM): 53% | residual activity (CAMKK2 (human); compound 1.0 µM): 72% | residual activity (CAMKK2 (human); compound 10.0 µM): 61% | residual activity (EPHB4 (human); compound 1.0 µM): 90% | residual activity (EPHB4 (human); compound 10.0 µM): 56% | residual activity (IGF1R (human); compound 1.0 µM): 96% | residual activity (IGF1R (human); compound 10.0 µM): 43% | residual activity (ERBB4 (human); compound 1.0 µM): 109% | residual activity (ERBB4 (human); compound 10.0 µM): 44%
Compound: O=c1c(O)c(-c2ccc(O)c(O)c2)oc2cc(O)c(O)c(O)c12
